According to ChEMBL document CHEMBL2086230, “Comparison of the cytotoxic effects of enantiopure PPAPs, including nemorosone and clusianone” (Bioorg Med Chem Lett, 2012):

Key:
Format in all cases: functional, cell-based
HeLa = test: Cytotoxicity against human HeLa cells after 72 hrs by resazurin assay
MCF7 = test: Cytotoxicity against human MCF7 cells after 72 hrs by resazurin assay
MIA PaCa-2 = test: Cytotoxicity against human MIAPaCa2 cells after 72 hrs by resazurin assay

SMILES | IC50 (HeLa; Homo sapiens, HeLa, 72 h) [µM] | IC50 (MCF7; Homo sapiens, MCF7, 72 h) [µM] | IC50 (MIA PaCa-2; Homo sapiens, MIA PaCa-2, 72 h) [µM] | IC50 (HeLa; hela) [µM] | IC50 (MCF7; mcf7) [µM] | IC50 (MIA PaCa-2; mia paca-2) [µM]
CC(C)=CCC1=C(O)[C@@]2(C(=O)c3ccccc3)C(=O)[C@](CC=C(C)C)(C[C@H](CC=C(C)C)C2(C)C)C1=O | 2.9 | 5.2 | 2.4 |  |  | 
CC(C)=CCC1=C(O)C2(CC=C(C)C)CC(CC=C(C)C)C(C)(C)C(C(=O)c3ccccc3)(C1=O)C2=O (single isomer, unassigned; (+)) | 3.9 | 6.5 | 3.4 |  |  | 
CC(C)=CCC1=C(O)C2(C(=O)c3ccccc3)CC(CC=C(C)C)C(C)(C)C(CC=C(C)C)(C1=O)C2=O (single isomer, unassigned; (+)) | 10.1 | 18.9 | 11.3 |  |  | 
CC(C)=CC[C@H]1C[C@]2(CC=C(C)C)C(=O)[C@@](CC=C(C)C)(C(=O)C(C(=O)c3ccccc3)=C2O)C1(C)C (stereo in doubt; (+)-4) [6-EPI-CLUSIANONE] | 5.8 | 8.3 | 5.2 |  |  | 
CC(C)=CCC1=C(O)C2(CC=C(C)C)CC(CC=C(C)C)C(C)(C)C(C(=O)c3ccccc3)(C1=O)C2=O (stereo in doubt; (-)-3) |  |  |  | 3.4 | 8 | 3.5
CC(C)=CC[C@H]1C[C@]2(CC=C(C)C)C(=O)[C@@](CC=C(C)C)(C(=O)C(C(=O)c3ccccc3)=C2O)C1(C)C (stereo in doubt; (-)-4) [6-EPI-CLUSIANONE] |  |  |  | 3 | 5.7 | 3.8
CC(C)=CCC1=C(O)C2(C(=O)c3ccccc3)CC(CC=C(C)C)C(C)(C)C(CC=C(C)C)(C1=O)C2=O (stereo in doubt; (-)-5) |  |  |  | 10.9 | 10.9 | 8.6
Nc1ccn([C@@H]2O[C@H](CO)[C@@H](O)C2(F)F)c(=O)n1 [GEMCITABINE] | 0.05 | 0.06 | 0.06 |  |  | 
